These results are taken from US8785488B2 (Exelixis Patent Company LLC, priority 2009, dated 2014).

Structures are written as SMILES. A value given as a limit tells only on which side of the number the result lay.

One assay deals with T1, human TGR5 (h-TGR5) (Homo sapiens, UniProt Q8TDU6).
T1 construct: expressed in transfected cells
T1 sequence (Q8TDU6 1-330): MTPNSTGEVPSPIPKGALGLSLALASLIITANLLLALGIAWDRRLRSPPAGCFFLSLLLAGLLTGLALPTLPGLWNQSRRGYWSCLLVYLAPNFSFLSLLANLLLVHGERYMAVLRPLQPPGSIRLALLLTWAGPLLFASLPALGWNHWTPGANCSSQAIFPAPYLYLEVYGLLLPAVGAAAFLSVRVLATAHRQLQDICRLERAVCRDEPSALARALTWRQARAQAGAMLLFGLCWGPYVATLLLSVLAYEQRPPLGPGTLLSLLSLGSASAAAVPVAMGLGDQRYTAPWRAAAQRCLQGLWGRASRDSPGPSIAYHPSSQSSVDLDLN
Put plainly: TGR5/CRE-Luciferiase Assay (HEK 293 hTGR5/CRE-Luc cells). The following applies: h-TGR5 CRE-Luc EC50, Table 1; read-out: CRE-Luc (EC50). Type of assay: cell-based. Put shortly:
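HEK293 cells stably carrying hTGR5 and a CRE-luciferase reporter were exposed to serially diluted compounds (diluted in DMEM with 5% DMSO) for 6 h. Cells were then lysed in luciferase buffer, luminescence was read, and EC50 values were derived from dose-response curves.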

The target of another assay is T2, h-TGR5 (Homo sapiens, UniProt Q8TDU6).
T2 construct: expressed in transfected cells
T2 sequence (Q8TDU6 1-330): T1 sequence (Q8TDU6 1-330)
Kind of assay: TGR5 cAMP Assay using Cisbio cAMP Dynamic2 htrf kit (hTGR5CRE-luc HEK 293 cells). Type of assay: cell-based. The following applies: h-TGR5 cAMP EC50, Table 1; read-out: cAMP (EC50). In short, it runs like this:
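[…], 4000 hTGR5CRE-luc HEK 293 cells per well, with 0.5 mM IBMX and d2-cAMP, were incubated 30 min at room temperature with compounds in 8-point half-log series, in quadruplicate.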

For `CCN(CC)CCS(=O)(=O)N1CCC(CSc2ncc(C(C)(C)c3ccc(Cl)c(Cl)c3)n2-c2ccc(F)cc2)CC1` [2-({4-[({5-[1-(3,4-dichlorophenyl)-1-methylethyl]-1-(4-fluorophenyl)-1H-imidazol-2-yl}thio)methyl]piperidin-1-yl}sulfonyl)-N,N-diethylethanamine], the EC50 on human TGR5 (h-TGR5) and on h-TGR5 was 100 to 1000 nM throughout.
Consider `COc1ccc(C(C)(C)c2cnc(SCc3ccc(S(N)(=O)=O)cc3Cl)n2-c2ccc(F)cc2)cc1Cl` [3-chloro-4-({[5-{1-[3-chloro-4-(methyloxy)phenyl]-1-methylethyl}-1-(4-fluorophenyl)-1H-imidazol-2-yl]thio}methyl)benzenesulfonamide], for which the concentration giving a half-maximal response (EC50) at human TGR5 (h-TGR5) and at h-TGR5 was less than 100 nM each time.
As for `COc1cc(C(C)(C)c2cnc(COc3ccc(Cl)c(-c4nnn[nH]4)c3)n2-c2ccc(F)cc2)ccc1Cl` [5-[2-chloro-5-({[5-{1-[4-chloro-3-(methyloxy)phenyl]-1-methylethyl}-1-(4-fluorophenyl)-1H-imidazol-2-yl]methyl}oxy)phenyl]-1H-tetrazole], the concentration for a half-maximal effect (EC50) (in general, the concentration at which the effect is half-maximal) on human TGR5 (h-TGR5) was less than 100 nM; at h-TGR5 it was 100 to 1000 nM.
In the same order, the values of `COc1cc(-n2c(C(C)(C)c3ccc(Cl)c(Cl)c3)cnc2SCc2ccc(S(=O)(=O)NC(=O)NN3CCOCC3)cc2Cl)ccc1F` [3-chloro-4-[({5-[1-(3,4-dichlorophenyl)-1-methylethyl]-1-[4-fluoro-3-(methyloxy)phenyl]-1H-imidazol-2-yl}thio)methyl]-N-[(morpholin-4-ylamino)carbonyl]benzenesulfonamide] are 100 to 1000 nM and 100 to 1000 nM.
In the same order, the values of `COc1cc(C(C)(C)c2cnc(SCc3c(F)cc(CCCCNC(=N)N)cc3F)n2-c2ccc(F)cc2)ccc1Cl` [1-{4-[4-({[5-{1-[4-chloro-3-(methyloxy)phenyl]-1-methylethyl}-1-(4-fluorophenyl)-1H-imidazol-2-yl]thio}methyl)-3,5-difluorophenyl]butyl}guanidine] are less than 100 nM and less than 100 nM.
In the case of `COc1cc(C(C)(C)c2cnc(SCc3c(F)cccc3Cl)n2-c2cccnc2)ccc1Cl` [3-(2-{[(2-chloro-6-fluorophenyl)methyl]thio}-5-{1-[4-chloro-3-(methyloxy)phenyl]-1-methylethyl}-1H-imidazol-1-yl)pyridine], the EC50 on human TGR5 (h-TGR5) and at h-TGR5 was 100 to 1000 nM in each case.
With `CC(C)(c1ccc(Cl)c(Cl)c1)c1c(Cl)nc(SCc2c(F)cc(C(=O)O)cc2F)n1-c1ccc(F)cc1` [4-[({4-chloro-5-[1-(3,4-dichlorophenyl)-1-methylethyl]-1-(4-fluorophenyl)-1H-imidazol-2-yl}thio)methyl]-3,5-difluorobenzoic acid], the EC50 on human TGR5 (h-TGR5) and at h-TGR5 was 100 to 1000 nM in each case.
With `COc1ccc(C(C)(C)c2c(Cl)nc(SCc3c(F)cccc3Cl)n2-c2ccc(F)cc2)cc1OC` [5-{1-[3,4-bis(methyloxy)phenyl]-1-methylethyl}-4-chloro-2-{[(2-chloro-6-fluorophenyl)methyl]thio}-1-(4-fluorophenyl)-1H-imidazole], the half-maximal effective concentration (EC50) on human TGR5 (h-TGR5) and on h-TGR5 was less than 100 nM throughout.
Take `Cc1cc(-n2c(C(C)(C)c3ccc(F)c(F)c3)cnc2SCc2ccc(S(=O)(=O)NC(=O)NN3CCCC3)cc2Cl)ccc1F` [3-chloro-4-[({5-[1-(3,4-difluorophcnyl)-1-methylethyl]-1-(4-fluoro-3-methylphenyl)-1H-imidazol-2-yl}thio)methyl]-N-[(pyrrolidin-1-ylamino)carbonyl]benzenesulfonamide]: the EC50 is 100 to 1000 nM at human TGR5 (h-TGR5) and 1000 to 10000 nM at h-TGR5.
Turning to `COc1cc(C(C)(C)c2cnc(SCc3ccc(S(=O)(=O)NC(=O)NN4CCCC4)cc3Cl)n2-c2ccc(F)c(CO)c2)ccc1Cl` [3-chloro-4-{[(5-{1-[4-chloro-3-(methyloxy)phenyl]-1-methylethyl}-1-[4-fluoro-3-(hydroxymethyl)phenyl]-1H-imidazol-2-yl)thio]methyl}-N-[(pyrrolidin-1-ylamino)carbonyl]benzenesulfonamide], the concentration for a half-maximal effect (EC50) on human TGR5 (h-TGR5) and at h-TGR5 was 100 to 1000 nM each time.
With `CC(C)(c1ccc(C(F)F)c(F)c1)c1cnc(SCc2ccc(S(=O)(=O)NC(=O)NN3CCCC3)cc2Cl)n1-c1ccc(F)cc1` [3-chloro-4-({[5-{1-[4-(difluoromethyl)-3-fluorophenyl]-1-methylethyl}-1-(4-fluorophenyl)-1H-imidazol-2-yl]thio}methyl)-N-[(pyrrolidin-1-ylamino)carbonyl]benzenesulfonamide], the EC50 on human TGR5 (h-TGR5) and on h-TGR5 was 100 to 1000 nM each time.
`CC(C)(c1ccc(Cl)c(Cl)c1)c1cnc(CCc2ccc(S(N)(=O)=O)cc2Cl)n1-c1ccc(F)cc1` [3-chloro-4-(2-{5-[1-(3,4-dichlorophenyl)-1-methylethyl]-1-(4-fluorophenyl)-1H-imidazol-2-yl}ethyl)benzenesulfonamide]: the concentration giving a half-maximal response (EC50) is 100 to 1000 nM on human TGR5 (h-TGR5) and 1000 to 10000 nM on h-TGR5.
In the same order, the values of `CC(C)(c1ccc(S(N)(=O)=O)c(Cl)c1)c1cnc(SCc2c(F)cc(C(=O)O)cc2F)n1-c1ccc(F)cc1` [4-({[5-{1-[4-(aminosulfonyl)-3-chlorophenyl]-1-methylethyl}-1-(4-fluorophenyl)-1H-imidazol-2-yl]thio}methyl)-3,5-difluorobenzoic acid] are less than 100 nM and less than 100 nM.
In the same order, the values of `COc1cc(C(C)(C)c2cnc(SCc3c(F)cc(C(=O)N[C@H](CCCNC(=N)N)C(=O)O)cc3Cl)n2-c2ccc(F)cc2)ccc1Cl` [N-2-{[3-chloro-4-({[5-{1-[4-chloro-3-(methyloxy)phenyl]-1-methylethyl}-1-(4-fluorophenyl)-1H-imidazol-2-yl]thio}methyl)-5-fluorophenyl]carbonyl}-D-arginine] are less than 100 nM and less than 100 nM.
In the same order, the values of `CC(C)(c1ccc(S(N)(=O)=O)cc1)c1cnc(SCc2c(F)cccc2Cl)n1-c1ccc(F)cc1` [4-{1-[2-{[(2-chloro-6-fluorophenyl)methyl]thio}-1-(4-fluorophenyl)-1H-imidazol-5-yl]-1-methylethyl}benzenesulfonamide] are 100 to 1000 nM and 100 to 1000 nM.
With `COc1cc(C(C)(C)c2cnc(SCc3ccc(S(=O)(=O)NC(=O)NC4CC4)cc3Cl)n2-c2ccc(F)cc2)ccc1Cl` [3-chloro-4-({[5-{1-[4-chloro-3-(methyloxy)phenyl]-1-methylethyl}-1-(4-fluorophenyl)-1H-imidazol-2-yl]thio}methyl)-N-[(cyclopropylamino)carbonyl] benzenesulfonamide], the EC50 at human TGR5 (h-TGR5) and on h-TGR5 was less than 100 nM throughout.
Consider `COc1cc(C(C)(C)c2cnc(SCc3ccc(S(=O)(=O)NC(=O)NN4CCCC4)cc3Cl)n2-c2cc(C)c(F)cn2)ccc1Cl` [3-chloro-4-({[5-{1-[4-chloro-3-(methyloxy)phenyl]-1-methylethyl}-1-(5-fluoro-4-methylpyridin-2-yl)-1H-imidazol-2-yl]thio}methyl)-N-[(pyrrolidin-1-ylamino)carbonyl]benzenesulfonamide], for which the EC50 was 100 to 1000 nM at human TGR5 (h-TGR5) and 1000 to 10000 nM on h-TGR5.
In the same order, the values of `CC(C)(c1ccc(S(N)(=O)=O)c(Cl)c1)c1cnc(SCc2ccc(S(=O)(=O)NC(=O)NN3CCCC3)cc2Cl)n1-c1ccc(F)cc1` [4-({[5-{1-[4-(aminosulfonyl)-3-chlorophenyl]-1-methylethyl}-1-(4-fluorophenyl)-1H-imidazol-2-yl]thio}methyl)-3-chloro-N-[(pyrrolidin-1-ylamino)carbonyl]benzenesulfonamide] are 100 to 1000 nM and 100 to 1000 nM.
In the same order, the values of `COc1ccc(C(C)(C)c2cnc(COc3c(F)cccc3Cl)n2-c2ccc(F)cc2)cc1OC` [5-{1-[3,4-bis(methyloxy)phenyl]-1-methylethyl}-2-{[(2-chloro-6-fluorophenyl)oxy]methyl}-1-(4-fluorophenyl)-1H-imidazole] are less than 100 nM and less than 100 nM.
In the same order, the values of `COc1cc(-n2c(C(C)(C)c3ccc(F)c(C#N)c3)cnc2SCc2c(F)cc(C(=O)O)cc2F)ccc1F` [4-[({5-[1-(3-cyano-4-fluorophenyl)-1-methylethyl]-1-[4-fluoro-3-(methyloxy)phenyl]-1H-imidazol-2-yl}thio)methyl]-3,5-difluorobenzoic acid] are less than 100 nM and less than 100 nM.
In the case of `COc1cc(C(C)(C)c2cnc(SCc3ccc(S(=O)(=O)NC(=O)Nn4cccc4)cc3Cl)n2-c2ccc(F)cc2)ccc1Cl` [3-chloro-4-({[5-{1-[4-chloro-3-(methyloxy)phenyl]-1-methylethyl}-1-(4-fluorophenyl)-1H-imidazol-2-yl]thio}methyl)-N-[(1H-pyrrol-1-ylamino)carbonyl]benzenesulfonamide], the EC50 on human TGR5 (h-TGR5) and at h-TGR5 was 100 to 1000 nM in each case.
Turning to `COc1cc(-n2c(C(C)(C)c3ccc(F)c(C#N)c3)cnc2SCc2ccc(S(=O)(=O)NC(=O)NN3CCCC3)cc2Cl)ccc1F` [3-chloro-4-[({5-[1-(3-cyano-4-fluorophenyl)-1-methylethyl]-1-[4-fluoro-3-(methyloxy)phenyl]-1H-imidazol-2-yl}thio)methyl]-N-[(pyrrolidin-1-ylamino)carbonyl]benzenesulfonamide], the EC50 at human TGR5 (h-TGR5) and at h-TGR5 was 100 to 1000 nM each time.
